From ChEMBL document CHEMBL1201862, “PubChem BioAssay data set” (2004)
Where “and” joins values, the source holds several entries; their conditions need not be identical. Identical values can stand only once.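 How tested: cells in 96-well plates exposed to compound for 48 hours at five concentrations. The concentration for 50% growth inhibition is given as GI50.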 Calls of active or inactive are those of the source. Cut-off read from the data, not from the text of the source: active = GI50 up to about 1.1 µM and inactive = higher.

Columns and labels:
Experiment in all cases: NCI tumour cell line growth inhibition, 48 h
NCI-H460 = test system: NCI-H460
ACHN = test system: ACHN
HT-29 = test system: HT-29
HCT-116 = test system: HCT-116
MDA-MB-231 = test system: MDA-MB-231
U-251 = test system: U-251
HCC 2998 = test system: HCC 2998
A549 = test system: A549
SF-268 = test system: SF-268
LOX IMVI = test system: LOX IMVI
NCI-H522 = test system: NCI-H522
SNB-75 = test system: SNB-75
SK-MEL-28 = test system: SK-MEL-28
IGROV-1 = test system: IGROV-1
HOP-62 = test system: HOP-62
COLO 205 = test system: COLO 205
OVCAR-5 = test system: OVCAR-5
UO-31 = test system: UO-31
Malme-3M = test system: Malme-3M
SF-539 = test system: SF-539
T47D = test system: T47D
K562 = test system: K562
Hs-578T = test system: Hs-578T
SK-MEL-5 = test system: SK-MEL-5
SNB-19 = test system: SNB-19
A498 = test system: A498
MOLT-4 = test system: MOLT-4
UACC-62 = test system: UACC-62
SR = test system: SR
MCF7 = test system: MCF7
HCT-15 = test system: HCT-15
RXF 393 = test system: RXF 393
HOP-92 = test system: HOP-92
UACC-257 = test system: UACC-257
CCRF-CEM = test system: CCRF-CEM
KM12 = test system: KM12
BT-549 = test system: BT-549
HL-60 = test system: HL-60
MDA-N = test system: MDA-N
TK-10 = test system: TK-10
SF-295 = test system: SF-295
RPMI-8226 = test system: RPMI-8226
NCI-H23 = test system: NCI-H23
OVCAR-3 = test system: OVCAR-3
CAKI-1 = test system: CAKI-1
SN12C = test system: SN12C
NCI-H226 = test system: NCI-H226
NCI/ADR-RES = test system: NCI/ADR-RES
SW-620 = test system: SW-620
OVCAR-4 = test system: OVCAR-4
PC-3 = test system: PC-3
SK-OV-3 = test system: SK-OV-3
M14 = test system: M14
786-0 = test system: 786-0
SK-MEL-2 = test system: SK-MEL-2
DU-145 = test system: DU-145
MDA-MB-435 = test system: MDA-MB-435
OVCAR-8 = test system: OVCAR-8

With Cc1ccc2nc3n(c2c1)C(c1c(F)cccc1F)SC3 (configuration not stated) the GI50 (NCI-H460) was > 100 µM (inactive), the GI50 (ACHN) was > 100 µM (inactive) and the GI50 (HT-29) was > 100 µM (inactive). The GI50 (HCT-116) was > 100 µM (inactive), the GI50 (MDA-MB-231) was > 100 µM (inactive) and the GI50 (U-251) was > 100 µM (inactive). The GI50 (HCC 2998) was > 100 µM (inactive), the GI50 (A549) was > 100 µM (inactive) and the GI50 (SF-268) was > 100 µM (inactive). For the same compound, the GI50 (LOX IMVI) was > 100 µM (inactive), the GI50 (NCI-H522) was 55.5 µM (inactive) and the GI50 (SNB-75) was > 100 µM (inactive). For the same compound, the GI50 (SK-MEL-28) was > 100 µM (inactive), the GI50 (IGROV-1) was > 100 µM (inactive) and the GI50 (HOP-62) was > 100 µM (inactive). For the same compound, the GI50 (COLO 205) was > 100 µM (inactive), the GI50 (OVCAR-5) was > 100 µM (inactive) and the GI50 (UO-31) was > 100 µM (inactive). The GI50 (Malme-3M) was > 100 µM (inactive), the GI50 (SF-539) was > 100 µM (inactive) and the GI50 (T47D) was > 100 µM (inactive). For the same compound, the GI50 (K562) was > 100 µM (inactive), the GI50 (Hs-578T) was > 100 µM (inactive) and the GI50 (SK-MEL-5) was > 100 µM (inactive). The GI50 (SNB-19) was > 100 µM (inactive), the GI50 (A498) was > 100 µM (inactive) and the GI50 (MOLT-4) was 63.8 µM (inactive). For the same compound, the GI50 (UACC-62) was > 100 µM (inactive), the GI50 (SR) was > 100 µM (inactive) and the GI50 (MCF7) was 47.1 µM (inactive). For the same compound, the GI50 (HCT-15) was > 100 µM, the GI50 (RXF 393) was > 100 µM (inactive) and the GI50 (HOP-92) was 49.3 µM (inactive). The GI50 (UACC-257) was > 100 µM (inactive), the GI50 (CCRF-CEM) was > 100 µM (inactive) and the GI50 (KM12) was > 100 µM (inactive). The GI50 (BT-549) was > 100 µM (inactive), the GI50 (HL-60) was 71.6 µM (inactive) and the GI50 (MDA-N) was > 100 µM (inactive). The GI50 (TK-10) was > 100 µM (inactive), the GI50 (SF-295) was > 100 µM (inactive) and the GI50 (RPMI-8226) was > 100 µM (inactive). For the same compound, the GI50 (NCI-H23) was > 100 µM (inactive), the GI50 (OVCAR-3) was > 100 µM (inactive) and the GI50 (CAKI-1) was 19.1 µM (inactive). For the same compound, the GI50 (SN12C) was > 100 µM (inactive), the GI50 (NCI-H226) was > 100 µM (inactive) and the GI50 (NCI/ADR-RES) was > 100 µM (inactive). The GI50 (SW-620) was > 100 µM (inactive), the GI50 (OVCAR-4) was > 100 µM (inactive) and the GI50 (PC-3) was > 100 µM (inactive). The GI50 (SK-OV-3) was > 100 µM (inactive), the GI50 (M14) was > 100 µM (inactive) and the GI50 (786-0) was > 100 µM (inactive). For the same compound, the GI50 (SK-MEL-2) was > 100 µM (inactive) and the GI50 (DU-145) was > 100 µM (inactive).
With CC1OC(OC2C(OC(=O)[C@]34CCC(C)(C)C[C@H]3C3=CC[C@@H]5[C@@]6(C)CC[C@H](OC7OC(C(=O)O)C(O)C(O)C7O)C(C)(C)[C@@H]6CC[C@@]5(C)[C@]3(C)C[C@H]4O)OCC(O)C2O)C(O)C(O)C1OC1OCC(O)C(O)C1O (some centres not stated) the GI50 (NCI-H460) was 22 µM (inactive) and 17 µM (inactive), the GI50 (ACHN) was 9.35 µM (inactive) and the GI50 (HT-29) was 7.62 µM (inactive) and 5.18 µM (inactive). For the same compound, the GI50 (HCT-116) was 14.1 µM (inactive) and 9.89 µM (inactive), the GI50 (U-251) was 10.4 µM (inactive) and 15.3 µM (inactive) and the GI50 (SF-268) was 11.6 µM (inactive) and 19.3 µM (inactive). The GI50 (LOX IMVI) was 15.5 µM (inactive) and 10.7 µM (inactive), the GI50 (NCI-H522) was 10.2 µM (inactive) and 6.21 µM (inactive) and the GI50 (SNB-75) was 15.9 µM (inactive) and 16.9 µM (inactive). The GI50 (IGROV-1) was 15.2 µM (inactive) and 13 µM (inactive), the GI50 (HOP-62) was 17.7 µM (inactive) and 14.4 µM (inactive) and the GI50 (COLO 205) was 3.64 µM (inactive) and 2.32 µM (inactive). For the same compound, the GI50 (OVCAR-5) was 10.5 µM (inactive) and 14.9 µM (inactive), the GI50 (UO-31) was 7.29 µM (inactive) and 11.6 µM (inactive) and the GI50 (Malme-3M) was 14.2 µM (inactive) and 12 µM (inactive). The GI50 (T47D) was 22.2 µM (inactive) and 11.3 µM (inactive), the GI50 (K562) was 16.4 µM (inactive) and 14.6 µM (inactive) and the GI50 (Hs-578T) was 19.8 µM (inactive) and 21.3 µM (inactive). For the same compound, the GI50 (SK-MEL-5) was 16.8 µM (inactive) and 18.9 µM (inactive), the GI50 (SNB-19) was 12.6 µM (inactive) and 8.09 µM (inactive) and the GI50 (A498) was 2.54 µM (inactive) and 1.72 µM (inactive). For the same compound, the GI50 (MOLT-4) was 16 µM (inactive) and 27 µM (inactive), the GI50 (UACC-62) was 18.5 µM (inactive) and 16 µM (inactive) and the GI50 (SR) was 7.55 µM (inactive) and 6.01 µM (inactive). For the same compound, the GI50 (HCT-15) was 17.1 µM and 17.3 µM, the GI50 (RXF 393) was 15.7 µM (inactive) and 18.5 µM (inactive) and the GI50 (HOP-92) was 13.8 µM (inactive) and 11.2 µM (inactive). For the same compound, the GI50 (UACC-257) was 16.8 µM (inactive) and 16.4 µM (inactive), the GI50 (CCRF-CEM) was 17.5 µM (inactive) and 19.9 µM (inactive) and the GI50 (BT-549) was 12.2 µM (inactive) and 13.5 µM (inactive). For the same compound, the GI50 (HL-60) was 8.93 µM (inactive), the GI50 (MDA-N) was 10.6 µM (inactive) and 13.8 µM (inactive) and the GI50 (SF-295) was 10.1 µM (inactive) and 15.5 µM (inactive). For the same compound, the GI50 (RPMI-8226) was 12.1 µM (inactive) and 16.8 µM (inactive), the GI50 (NCI-H23) was 5.31 µM (inactive) and 6.5 µM (inactive) and the GI50 (OVCAR-3) was 15.3 µM (inactive) and 17.7 µM (inactive). For the same compound, the GI50 (CAKI-1) was 12.7 µM (inactive) and 7.74 µM (inactive), the GI50 (SN12C) was 2.38 µM (inactive) and 4.59 µM (inactive) and the GI50 (NCI-H226) was 4.57 µM (inactive) and 7.19 µM (inactive). For the same compound, the GI50 (SW-620) was 13 µM (inactive) and 16.3 µM (inactive), the GI50 (OVCAR-4) was 17.8 µM (inactive) and the GI50 (SK-OV-3) was 16.8 µM (inactive) and 18.9 µM (inactive). The GI50 (M14) was 13.7 µM (inactive) and 8.59 µM (inactive), the GI50 (786-0) was 14.8 µM (inactive) and 12.6 µM (inactive) and the GI50 (DU-145) was 15.3 µM (inactive) and 13.9 µM (inactive).
In the case of CN1CCN(C(=S)N(C)C(=O)c2cccs2)CC1, the GI50 (NCI-H460) is reported as > 100 µM (inactive), the GI50 (ACHN) is reported as > 100 µM (inactive) and the GI50 (HT-29) is reported as > 100 µM (inactive). For the same compound, the GI50 (MDA-MB-231) was > 100 µM (inactive), the GI50 (U-251) was > 100 µM (inactive) and the GI50 (HCC 2998) was > 100 µM (inactive). For the same compound, the GI50 (A549) was > 100 µM (inactive), the GI50 (MDA-MB-435) was > 100 µM (inactive) and the GI50 (LOX IMVI) was > 100 µM (inactive). The GI50 (NCI-H522) was > 100 µM (inactive), the GI50 (IGROV-1) was > 100 µM (inactive) and the GI50 (COLO 205) was > 100 µM (inactive). For the same compound, the GI50 (OVCAR-5) was > 100 µM (inactive), the GI50 (UO-31) was > 100 µM (inactive) and the GI50 (Malme-3M) was > 100 µM (inactive). For the same compound, the GI50 (T47D) was > 100 µM (inactive), the GI50 (K562) was > 100 µM (inactive) and the GI50 (Hs-578T) was > 100 µM (inactive). The GI50 (SK-MEL-5) was > 100 µM (inactive), the GI50 (SNB-19) was > 100 µM (inactive) and the GI50 (MOLT-4) was > 100 µM (inactive). For the same compound, the GI50 (UACC-62) was > 100 µM (inactive), the GI50 (SR) was > 100 µM (inactive) and the GI50 (MCF7) was > 100 µM (inactive). For the same compound, the GI50 (HCT-15) was > 100 µM, the GI50 (RXF 393) was > 100 µM (inactive) and the GI50 (OVCAR-8) was > 100 µM (inactive). The GI50 (HOP-92) was > 100 µM (inactive), the GI50 (UACC-257) was > 100 µM (inactive) and the GI50 (CCRF-CEM) was > 100 µM (inactive). For the same compound, the GI50 (KM12) was > 100 µM (inactive), the GI50 (BT-549) was > 100 µM (inactive) and the GI50 (MDA-N) was > 100 µM (inactive). For the same compound, the GI50 (TK-10) was > 100 µM (inactive), the GI50 (SF-295) was > 100 µM (inactive) and the GI50 (RPMI-8226) was > 100 µM (inactive). The GI50 (NCI-H23) was > 100 µM (inactive), the GI50 (OVCAR-3) was > 100 µM (inactive) and the GI50 (SN12C) was > 100 µM (inactive). The GI50 (NCI-H226) was > 100 µM (inactive), the GI50 (SW-620) was > 100 µM (inactive) and the GI50 (OVCAR-4) was > 100 µM (inactive). For the same compound, the GI50 (M14) was > 100 µM (inactive), the GI50 (786-0) was > 100 µM (inactive) and the GI50 (SK-MEL-2) was > 100 µM (inactive). The GI50 (DU-145) was > 100 µM (inactive).
